The values that follow come from patent US20240018166A1, “SULFONYL UREA NLRP3 INFLAMMASOME INHIBITORS” (Venatorx Pharmaceuticals, Inc., priority 2020, published 2024).

The subject of series [1] is IL-1β. Nature of the series: IL-1β inhibition assay (ELISA/HTRF of culture supernatants). It is filed as cell-based. As to conditions: Homo sapiens, PMA-differentiated THP-1 cells, tested 10 μM to 0.003 μM. On the procedure: Human monocyte-like THP-1 cells were grown in RPMI media supplemented with 10% FBS (growth media) at 37° C., 5% CO2. Cell cultures were passaged every three days and maintained at a density of 5×10^5 to 1×10^6 cells per mL.
Compounds were prepared as 10 mM stock solutions in 100% DMSO. […] Each 200× dilution was then diluted 20-fold in growth media (step down dilution) to yield a 10× final assay concentration range. All compounds were tested over a final assay concentration range of 10 μM to 0.003 μM.
The level of IL-10 in supernatants from PMA-differentiated THP-1 cells was determined by ELISA using either the R&D Systems Human IL-1 beta/IL-1F2 Quantikine ELISA or the cisbio HTRF human IL 1 beta kit. Manufacturer's protocols were followed without deviation.
Background values were subtracted and resulting values were converted to percentage of vehicle-treated controls. Data was analyzed via GraphPad Prism 7.0 using a non-linear regression (variable slope (four-parameter)) equation.
Table 2 provides IL-10 ELISA EC50 values for example compounds. A indicates EC50>10 μM; B indicates EC50 between 1 and 10 μM (inclusive); C indicates EC50<1 μM.

Series [2] is described as follows: MTT cell viability assay, THP-1 cells. It is filed as cell-based. As to conditions: human, unstimulated THP-1 cells, read-out: THP-1 Cytotoxicity CC50. The procedure:
In order to assess the cytotoxicity of the compounds, an MTT cell viability assay was performed in either unstimulated THP-1 or HepG2 cells as follows. 5×10^4 THP-1 or 5×10^3 HepG2 cells were seeded into each well of a 96-well plate in 90 μL of media. Compounds were added to cells as described for the IL-10 assay and returned to the incubator for an additional 72 hours. Next, 25 μL of MTT solution (5 mg/mL in sterile PBS) was added to each well. Plates were incubated for 3 hours at 37° C., 5% CO2. Next, for THP-1 cells, 100 μl of MTT solubilization solution (40% Dimethylformamide, 2% glacial acetic acid, 16% sodium dodecyl sulfate) was then added to each well and plates were incubated at room temperature in the dark overnight. For HepG2 cells, media was aspirated, 50 μL of DMSO was added and plates were mixed briefly with an orbital plate shaker. Absorbance at 570 nm was measured using a Perkin-Elmer EnVision plate reader.
Absorbance values were converted to percentage of vehicle-treated controls. Data was then analyzed using a non-linear regression (variable slope (four-parameter)) equation in GraphPad Prism 7.0.
Table 2 provides THP-1 cytotoxicity assay CC50 values for example compounds. A indicates CC50>10 μM; B indicates CC50 between 1 and 10 μM (inclusive); C indicates CC50<1 μM. NT, not tested.

Turning to `O=C(Nc1c2c(cc3c1CCC3)CCC2)NS(=O)(=O)c1ccc2c(c1)B(O)OC2=O` [Example 36, N-((1,2,3,5,6,7-hexahydro-s-indacen-4-yl)carbamoyl)-1-hydroxy-3-oxo-1,3-dihydrobenzo[c][1,2]oxaborole-6-sulfonamide], the EC50 in series [1] was above 10 µM. Moreover, in series [2], the CC50 at 72 h is above 10 µM.

In series [1], `CC1(C)OB(O)c2cc(S(=O)(=O)NC(=O)Nc3c4c(cc5c3CCC5)CCC4)ccc21` [Example 47, N-((1,2,3,5,6,7-hexahydro-s-indacen-4-yl)carbamoyl)-1-hydroxy-3,3-dimethyl-1,3-dihydrobenzo[c][1,2]oxaborole-6-sulfonamide] yielded an EC50 of 1 to 10 µM. Also, the CC50 at 72 h in series [2] was above 10 µM.

In series [1], `COc1ccc(S(=O)(=O)NC(=O)Nc2c3c(cc4c2CCC4)CCC3)cc1B(O)O` [Example 43, (5-(N-((1,2,3,5,6,7-hexahydro-s-indacen-4-yl)carbamoyl)sulfamoyl)-2-methoxyphenyl)boronic acid] had an EC50 of 1 to 10 µM. Moreover, in series [2], the CC50 at 72 h is above 10 µM.

In the case of `CC1(C)[C@@H]2C[C@H]3OB(CCCc4ccc(S(=O)(=O)NC(=O)Nc5c6c(cc7c5CCC7)CCC6)cc4O)O[C@@]3(C)[C@H]1C2` [Example 48, N-((1,2,3,5,6,7-hexahydro-s-indacen-4-yl)carbamoyl)-3-hydroxy-4-(3-((3aS,4S,6S,7aR)-3a,5,5-trimethylhexahydro-4,6-methanobenzo[d][1,3,2]dioxaborol-2-yl)propyl)benzenesulfonamide], the concentration for a half-maximal effect (EC50) in series [1] lay within 1 to 10 µM. Also, the CC50 at 72 h in series [2] is above 10 µM.

Consider `C[N+]12CCO[B-]1(c1cccc(S(=O)(=O)NC(=O)Nc3c4c(cc5c3CCC5)CCC4)c1)OCC2` (centres unmarked) [Example 28, N-((1,2,3,5,6,7-hexahydro-s-indacen-4-yl)carbamoyl)-3-(4-methyltetrahydro-2H-414,814-[1,3,2]oxazaborolo[2,3-b][1,3,2]oxazaborol-8-yl)benzenesulfonamide], for which, in series [1], the EC50 is below 1 µM. The CC50 at 72 h in series [2] is above 10 µM.

Regarding `Cc1c(B(O)O)cccc1S(=O)(=O)NC(=O)Nc1c2c(cc3c1CCC3)CCC2` [Example 15, (3-(N-((1,2,3,5,6,7-hexahydro-s-indacen-4-yl)carbamoyl)sulfamoyl)-2-methylphenyl)boronic acid], the EC50 in series [1] was in the range of 1 to 10 µM. For the same molecule, in series [2], the CC50 at 72 h was above 10 µM.

In series [1], `COc1ccc(S(=O)(=O)NC(=O)Nc2c3c(cc4c2CCC4)CCC3)cc1CCB1OC(C)(C)C(C)(C)O1` [Example 32, N-((1,2,3,5,6,7-hexahydro-s-indacen-4-yl)carbamoyl)-4-methoxy-3-(2-(4,4,5,5-tetramethyl-1,3,2-dioxaborolan-2-yl)ethyl)benzenesulfonamide] registered an EC50 of 1 to 10 µM. In series [2], the CC50 at 72 h was above 10 µM.

Take `COc1ccc(S(=O)(=O)NC(=O)Nc2c3c(cc4c2CCC4)CCC3)cc1CCCB1O[C@@H]2C[C@@H]3C[C@@H](C3(C)C)[C@]2(C)O1` [Example 50, N-((1,2,3,5,6,7-hexahydro-s-indacen-4-yl)carbamoyl)-4-methoxy-3-(3-((3aS,4S,6S,7aR)-3a,5,5-trimethylhexahydro-4,6-methanobenzo[d][1,3,2]dioxaborol-2-yl)propyl)benzenesulfonamide]: the EC50 in series [1] is 1 to 10 µM. Also, the CC50 at 72 h in series [2] is above 10 µM.

In the case of `O=C(Nc1c2c(cc3c1CCC3)CCC2)NS(=O)(=O)c1ccc2c(c1)OB(O)CC2` [Example 41, N-((1,2,3,5,6,7-hexahydro-s-indacen-4-yl)carbamoyl)-2-hydroxy-3,4-dihydro-2H-benzo[e][1,2]oxaborinine-7-sulfonamide], the EC50 in series [1] fell in the range of 1 to 10 µM. Besides, in series [2], the CC50 at 72 h is above 10 µM.

In turn, `O=C(Nc1c2c(cc3c1CCC3)CCC2)NS(=O)(=O)c1ccc(B(O)O)cc1` [Example 13, (4-(N-((1,2,3,5,6,7-hexahydro-s-indacen-4-yl)carbamoyl)sulfamoyl)phenyl)boronic acid] displayed an EC50 in series [1] of 1 to 10 µM. Further, the CC50 at 72 h in series [2] is above 10 µM.

For `O=C(Nc1c2c(cc3c1CCC3)CCC2)NS(=O)(=O)c1ccc2c(c1)B(O)OC2` [Example 17, N-((1,2,3,5,6,7-hexahydro-s-indacen-4-yl)carbamoyl)-1-hydroxy-1,3-dihydrobenzo[c][1,2]oxaborole-6-sulfonamide], the EC50 in series [1] lay in the range of 1 to 10 µM. In series [2], the CC50 at 72 h is above 10 µM.

As to `COc1ccc(B2OC(C)(C)C(C)(C)O2)cc1S(=O)(=O)NC(=O)Nc1c(C(C)C)cccc1C(C)C` [Example 9, N-((2,6-diisopropylphenyl)carbamoyl)-2-methoxy-5-(4,4,5,5-tetramethyl-1,3,2-dioxaborolan-2-yl)benzenesulfonamide], the EC50 in series [1] was above 10 µM. Moreover, in series [2], the CC50 at 72 h is above 10 µM.

In the case of `CC(C)(O)c1coc(S(=O)(=O)NC(=O)Nc2c3c(cc4c2CCC4)CCC3)c1` [MCC-950, reference compound], in series [1], the EC50 was below 1 µM. In series [2], the CC50 at 72 h was above 10 µM.

`O=C(Nc1c2c(cc3c1CCC3)CCC2)NS(=O)(=O)c1ccc2c(c1)CCB(O)O2` [Example 33, N-((1,2,3,5,6,7-hexahydro-s-indacen-4-yl)carbamoyl)-2-hydroxy-3,4-dihydro-2H-benzo[e][1,2]oxaborinine-6-sulfonamide]: the EC50 in series [1] is 1 to 10 µM. In series [2], the CC50 at 72 h is above 10 µM.

In the case of `O=C(Nc1c2c(cc3c1CCC3)CCC2)NS(=O)(=O)c1ccc(CB(O)O)c(O)c1` [Example 44, (4-(N-((1,2,3,5,6,7-hexahydro-s-indacen-4-yl)carbamoyl)sulfamoyl)-2-hydroxybenzyl)boronic acid], the EC50 in series [1] lay in the range of 1 to 10 µM. For the same molecule, the CC50 at 72 h in series [2] was above 10 µM.

For the molecule `O=C(Nc1c2c(cc3c1CCC3)CCC2)NS(=O)(=O)c1cc(F)cc2c1B(O)OC2` [Example 34, 5-fluoro-N-((1,2,3,5,6,7-hexahydro-s-indacen-4-yl)carbamoyl)-1-hydroxy-1,3-dihydrobenzo[c][1,2]oxaborole-7-sulfonamide], the EC50 in series [1] fell in the range of 1 to 10 µM. The CC50 at 72 h in series [2] is above 10 µM.

For `O=C(Nc1c2c(cc3c1CCC3)CCC2)NS(=O)(=O)c1ccc(O)c(CCCB(O)O)c1` [Example 37, (3-(5-(N-((1,2,3,5,6,7-hexahydro-s-indacen-4-yl)carbamoyl)sulfamoyl)-2-hydroxyphenyl)propyl)boronic acid], the EC50 in series [1] lay in the range of 1 to 10 µM. Further, the CC50 at 72 h in series [2] was above 10 µM.

As for `Cc1c(B2OC(C)(C)C(C)(C)O2)cccc1S(=O)(=O)NC(=O)Nc1c2c(cc3c1CCC3)CCC2` [Example 16, N-((1,2,3,5,6,7-hexahydro-s-indacen-4-yl)carbamoyl)-2-methyl-3-(4,4,5,5-tetramethyl-1,3,2-dioxaborolan-2-yl)benzenesulfonamide], the EC50 in series [1] is 1 to 10 µM. In series [2], the CC50 at 72 h was above 10 µM.

For `O=C(Nc1c2c(cc3c1CCC3)CCC2)NS(=O)(=O)c1ccccc1B(O)O` [Example 10, (2-(N-((1,2,3,5,6,7-hexahydro-s-indacen-4-yl)carbamoyl)sulfamoyl)phenyl)boronic acid], the EC50 in series [1] was above 10 µM. Also, in series [2], the CC50 at 72 h is above 10 µM.

With `C[N+]12CC(=O)O[B-]1(c1ccc(S(=O)(=O)NC(=O)Nc3c4c(cc5c3CCC5)CCC4)cc1)OC(=O)C2` (centres unmarked) [Example 27, N-((1,2,3,5,6,7-hexahydro-s-indacen-4-yl)carbamoyl)-4-(4-methyl-2,6-dioxotetrahydro-2H-414,814-[1,3,2]oxazaborolo[2,3-b][1,3,2]oxazaborol-8-yl)benzenesulfonamide], the EC50 in series [1] was below 1 µM. The CC50 at 72 h in series [2] is above 10 µM.

Molecule `CC(C)c1cccc(C(C)C)c1NC(=O)NS(=O)(=O)c1ccc(B2O[C@@H]3C[C@@H]4C[C@@H](C4(C)C)[C@]3(C)O2)cc1` [Example 4, N-((2,6-diisopropylphenyl)carbamoyl)-4-((3aS,4S,6S,7aR)-3a,5,5-trimethylhexahydro-4,6-methanobenzo[d][1,3,2]dioxaborol-2-yl)benzenesulfonamide] yielded an EC50 in series [1] above 10 µM. In addition, in series [2], the CC50 at 72 h is above 10 µM.

Molecule `C[N+]12CC(=O)O[B-]1(c1cccc(S(=O)(=O)NC(=O)Nc3c4c(cc5c3CCC5)CCC4)c1)OC(=O)C2` (centres unmarked) [Example 26, N-((1,2,3,5,6,7-hexahydro-s-indacen-4-yl)carbamoyl)-3-(4-methyl-2,6-dioxotetrahydro-2H-414,814-[1,3,2]oxazaborolo[2,3-b][1,3,2]oxazaborol-8-yl)benzenesulfonamide] had an EC50 in series [1] below 1 µM. Also, the CC50 at 72 h in series [2] is above 10 µM.
